For eight compounds, MIC results are on record in US12601740B2 (priority 2021, dated 2026).

One test deals with E. coli BAA 2340. Briefly: MIC by phage T7 amplification ELISA, serial microdilution in urine. The note with it: Escherichia coli, BAA2340, 2 h. A general note: In an ELISA, binding on a coated surface is turned into a signal by an enzyme label.
A further test deals with E. coli BAA 2523. The test is described as above. The note with it: Escherichia coli, BAA2523, 2 h.
Another test relates to E. coli 15597. The description is as above. To be noted: Escherichia coli, 15597, 2 h.
The test system of another test is E. coli BAA 198. The test is described as above. To be noted: Escherichia coli, BAA198, 2 h.
The next test deals with E. coli BAA 2471. The test is described as above. To be noted: Escherichia coli, BAA2471, 2 h.
In the next test the test system is E. coli BAA 197. The test is described as above. To be noted: Escherichia coli, BAA197, 2 h.
The next test relates to E. coli BAA 2452. Described as above. The note with it: Escherichia coli, BAA2452, 2 h.
The next test concerns E. coli O157:H7. Briefly: microbe, parasite or virus in culture. Format: cell-based. To be noted: Escherichia coli; E. coli strain O157:H7 in urine, ~1×10^6 cfu/mL, phage T7 amplification 2 hours at 37° C.
A further test relates to E. coli BAA 196. Briefly: MIC by phage T7 amplification ELISA, serial microdilution in urine. The note with it: Escherichia coli, BAA196, 2 h.

Each structure is given as a SMILES string. In brackets after ≈: the same amount, converted by molar mass.

Consider `CO/N=C(\C(=O)N[C@@H]1C(=O)N2C(C(=O)[O-])=C(C[N+]3(C)CCCC3)CS[C@H]12)c1csc(N)n1` [Cefepime], for which the MIC in the test with E. coli BAA 2340 was 68 µg/mL (≈ 141 µM); against E. coli BAA 2523, 16 µg/mL (≈ 33.3 µM); in the test on E. coli 15597, 8 µg/mL (≈ 16.6 µM); with E. coli BAA 198 it was 64 µg/mL (≈ 133 µM); in the test with E. coli BAA 2471, > 256 µg/mL; against E. coli BAA 197, > 64 µg/mL. The MIC in the test with E. coli BAA 2452 is 68 µg/mL (≈ 141 µM); in the test on E. coli O157:H7, 8 µg/mL (≈ 16.6 µM); with E. coli BAA 196 it was 64 µg/mL (≈ 133 µM).

For `CC(C)(O/N=C(\C(=O)N[C@@H]1C(=O)N2C(C(=O)[O-])=C(C[n+]3ccccc3)CS[C@H]12)c1csc(N)n1)C(=O)O` [Ceftazidime], the MIC is > 64 µg/mL against E. coli BAA 2340; > 256 µg/mL in the test on E. coli BAA 2523; 0.5 µg/mL (≈ 0.915 µM) against E. coli 15597; > 64 µg/mL against E. coli BAA 198; > 256 µg/mL with E. coli BAA 2471; > 64 µg/mL against E. coli BAA 197. Further, the figures for the MIC in the test on E. coli BAA 2452, with E. coli O157:H7 and with E. coli BAA 196 were 16 µg/mL (≈ 29.3 µM), 256 µg/mL (≈ 468 µM) and > 64 µg/mL, respectively.

For the compound `CO/N=C(\C(=O)N[C@@H]1C(=O)N2C(C(=O)O)=C(CSc3nc(=O)c(=O)[nH]n3C)CS[C@H]12)c1csc(N)n1` [Ceftriaxone], the MIC with E. coli BAA 2340 is > 64 µg/mL; in the test on E. coli BAA 2523, 256 µg/mL (≈ 462 µM); against E. coli 15597, 8 µg/mL (≈ 14.4 µM); with E. coli BAA 198, > 64 µg/mL; in the test with E. coli BAA 2471, > 256 µg/mL; with E. coli BAA 197, > 64 µg/mL. For the same compound, the MIC in the test on E. coli BAA 2452 is 68 µg/mL (≈ 123 µM); in the test on E. coli O157:H7, 64 µg/mL (≈ 115 µM); in the test on E. coli BAA 196, > 64 µg/mL.

On to `C[C@@H](O)[C@H]1C(=O)N2C(C(=O)O)=C(S[C@@H]3CN[C@H](CNS(N)(=O)=O)C3)[C@H](C)[C@H]12` [Doripenem], for which the MIC is 16 µg/mL (≈ 38 µM) against E. coli BAA 2340; 0.5 µg/mL (≈ 1.19 µM) with E. coli BAA 2523; > 64 µg/mL in the test with E. coli 15597; 32 µg/mL (≈ 76.1 µM) in the test on E. coli BAA 198; 256 µg/mL (≈ 609 µM) in the test on E. coli BAA 2471; 32 µg/mL (≈ 76.1 µM) with E. coli BAA 197. The results for the MIC against E. coli BAA 2452, against E. coli O157:H7 and against E. coli BAA 196 were 16 µg/mL (≈ 38 µM), 0.25 µg/mL (≈ 0.595 µM) and 16 µg/mL (≈ 38 µM), respectively.

With `C[C@@H](O)[C@H]1C(=O)N2C(C(=O)O)=C(S[C@@H]3CN[C@H](C(=O)Nc4cccc(C(=O)O)c4)C3)[C@H](C)[C@H]12` [Ertapenem], the MIC against E. coli BAA 2340 was 68 µg/mL (≈ 143 µM); in the test with E. coli BAA 2523, 8 µg/mL (≈ 16.8 µM); in the test on E. coli 15597, 0.5 µg/mL (≈ 1.05 µM); against E. coli BAA 198, 64 µg/mL (≈ 135 µM); with E. coli BAA 2471, > 256 µg/mL; in the test with E. coli BAA 197, > 64 µg/mL. For the same compound, the MIC against E. coli BAA 2452 is 16 µg/mL (≈ 33.6 µM); against E. coli O157:H7 it was 2 µg/mL (≈ 4.21 µM); in the test on E. coli BAA 196 it was 64 µg/mL (≈ 135 µM).

For `C[C@@H](O)[C@H]1C(=O)N2C(C(=O)O)=C(SCCN=CN)C[C@H]12` [Imipenem], the MIC in the test with E. coli BAA 2340 was > 64 µg/mL; with E. coli BAA 2523, 64 µg/mL (≈ 214 µM); in the test with E. coli 15597, 4 µg/mL (≈ 13.4 µM); with E. coli BAA 198, 64 µg/mL (≈ 214 µM); in the test on E. coli BAA 2471 it was 32 µg/mL (≈ 107 µM); against E. coli BAA 197, 32 µg/mL (≈ 107 µM). Besides, the values for the MIC against E. coli BAA 2452, against E. coli O157:H7 and against E. coli BAA 196 were 256 µg/mL (≈ 855 µM), 64 µg/mL (≈ 214 µM) and 16 µg/mL (≈ 53.4 µM), respectively.

On to `C[C@@H](O)[C@H]1C(=O)N2C(C(=O)O)=C(S[C@@H]3CN[C@H](C(=O)N(C)C)C3)[C@H](C)[C@H]12` [Meropenem], for which the MIC with E. coli BAA 2340 was 16 µg/mL (≈ 41.7 µM); in the test with E. coli BAA 2523 it was 1 µg/mL (≈ 2.61 µM); against E. coli 15597, > 64 µg/mL; against E. coli BAA 198 it was 16 µg/mL (≈ 41.7 µM); in the test on E. coli BAA 2471 it was 16 µg/mL (≈ 41.7 µM); against E. coli BAA 197, 64 µg/mL (≈ 167 µM). Besides, the values for the MIC against E. coli BAA 2452, with E. coli O157:H7 and against E. coli BAA 196 were 16 µg/mL (≈ 41.7 µM), 0.25 µg/mL (≈ 0.652 µM) and 16 µg/mL (≈ 41.7 µM), respectively.

As for `Cc1onc(-c2ccccc2)c1C(=O)N[C@@H]1C(=O)N2[C@@H]1SC(C)(C)[C@@H]2C(=O)O` [Oxacillin], the MIC in the test on E. coli BAA 2340 was > 64 µg/mL; in the test with E. coli BAA 2523, 256 µg/mL (≈ 638 µM); in the test with E. coli 15597, 64 µg/mL (≈ 159 µM); in the test with E. coli BAA 198, > 64 µg/mL; with E. coli BAA 2471 it was > 256 µg/mL; against E. coli BAA 197, > 64 µg/mL. Moreover, the MIC in the test on E. coli BAA 2452 was 64 µg/mL (≈ 159 µM); in the test on E. coli O157:H7 it was > 256 µg/mL; in the test on E. coli BAA 196, > 64 µg/mL.
